Results from paper PMC11995724, “Antibiotic target discovery by integrated phenotypic and activity-based profiling of electrophilic fragments” (Cell chemical biology, 2025).

Assay: in vitro
Conditions: human, hek293t cells

SMILES | viability at 48 h, 25 µM
COc1ccc(NC(C)=O)cc1NC(=O)C(C)Cl (stereo not drawn) [4-M08, 2-chloro-N-(5-acetamido-2-methoxyphenyl)propanamide] | 84.8%
COc1cc(NC(=O)CCl)c(C)cc1[N+](=O)[O-] [4-M09, 2-chloro-N-(5-methoxy-2-methyl-4-nitrophenyl)acetamide] | 1.27%
CC(Cl)C(=O)Nc1cccc2ncccc12 (stereo not drawn) [4-M10, 2-chloro-N-(quinolin-5-yl)propanamide] | 97.4%
CSc1ccccc1NC(=O)C(C)Cl (stereo not drawn) [4-M12, 2-chloro-N-[2-(methylsulfanyl)phenyl]propanamide] | 95.2%
Cc1ccc(NC(=O)CCl)cc1[N+](=O)[O-] [4-M13, 2-chloro-N-(4-methyl-3-nitrophenyl)acetamide] | 59.2%
Cc1ccc(C)c(-c2cc(NC(=O)CCl)n(-c3ccccc3)n2)c1 [4-M14, 2-chloro-N-[3-(2,5-dimethylphenyl)-1-phenyl-1H-pyrazol-5-yl]acetamide] | 0.149%
Cc1ccc(N(CCC#N)C(=O)CCl)cc1 [4-M15, 2-chloro-N-(2-cyanoethyl)-N-(4-methylphenyl)acetamide] | 1.24%
O=C(CCl)Nc1ccccc1F [4-M16, 2-chloro-N-(2-fluorophenyl)acetamide] | 0.723%
COc1cc(NC(=O)CCl)c(Cl)cc1C(=O)O [4-M17, 5-chloro-4-(2-chloroacetamido)-2-methoxybenzoic acid] | 1.05%
O=C(CCl)N1c2ccccc2SCC1c1ccccc1 (stereo not drawn) [4-M18, 2-chloro-1-(3-phenyl-3,4-dihydro-2H-1,4-benzothiazin-4-yl)ethan-1-one] | -0.0405%
COc1ccc(OC)c(C(C)NC(=O)CCl)c1 (stereo not drawn) [4-M19, 2-chloro-N-[1-(2,5-dimethoxyphenyl)ethyl]acetamide] | 1.13%
COc1ccc(C2=NN(C(=O)CCl)C(c3ccc(F)cc3)C2)cc1 (stereo not drawn) [4-M20, 2-chloro-1-[5-(4-fluorophenyl)-3-(4-methoxyphenyl)-4,5-dihydro-1H-pyrazol-1-yl]ethan-1-one] | 0.00411%
Cc1c(C#N)c(NC(=O)CCl)n(Cc2ccccc2)c1C [4-M21, N-(1-benzyl-3-cyano-4,5-dimethyl-1H-pyrrol-2-yl)-2-chloroacetamide] | -0.247%
O=C(CCl)N1N=C(C=Cc2ccco2)CC1c1ccco1 (stereo not drawn) [4-M22, 2-chloro-1-[5-(furan-2-yl)-3-[2-(furan-2-yl)ethenyl]-4,5-dihydro-1H-pyrazol-1-yl]ethan-1-one] | -0.145%
N#Cc1ccc(NC(=O)CCl)cc1Cl [4-N03, 2-chloro-N-(3-chloro-4-cyanophenyl)acetamide] | 0.427%
O=C(CCl)NCCCc1ccccc1 [4-N04, 2-chloro-N-(3-phenylpropyl)acetamide] | 50.6%
CC(Cl)C(=O)N(C)CC(=O)Nc1ccccc1C(F)(F)F (stereo not drawn) [4-N05, 2-chloro-N-methyl-N-({[2-(trifluoromethyl)phenyl]carbamoyl}methyl)propanamide] | 79.8%
COc1ccc(-c2csc(NC(=O)CCl)n2)cc1 [4-N06, 2-chloro-N-[4-(4-methoxyphenyl)-1,3-thiazol-2-yl]acetamide] | 0.915%
O=C(CCl)N1c2ccccc2Sc2ccc(Cl)cc21 [4-N07, 2-chloro-1-(2-chloro-10H-phenothiazin-10-yl)ethan-1-one] | 122%

SMILES | viability at 48 h, 25 µM
O=C(CCl)Nc1ccc(C(F)(F)F)cc1[N+](=O)[O-] [4-N08, 2-chloro-N-[2-nitro-4-(trifluoromethyl)phenyl]acetamide] | 87.1%
O=C(CCl)Nc1ccccc1OC(F)F [4-N09, 2-chloro-N-[2-(difluoromethoxy)phenyl]acetamide] | 0.7%
O=C(CCl)Nc1ccc(-c2ccccc2)cc1 [4-N10, N-{[1,1'-biphenyl]-4-yl}-2-chloroacetamide] | 0.814%
O=C(CCl)NCCc1ccc2c(c1)OCCO2 [4-N11, 2-chloro-N-[2-(2,3-dihydro-1,4-benzodioxin-6-yl)ethyl]acetamide] | 18.9%
COc1cc(NC(=O)CCl)cc(OC)c1OC [4-N12, 2-chloro-N-(3,4,5-trimethoxyphenyl)acetamide] | 1.27%
CC(Cl)C(=O)Nc1cc(Cl)c(Cl)cc1Cl (stereo not drawn) [4-N13, 2-chloro-N-(2,4,5-trichlorophenyl)propanamide] | 71.7%
CC(C)C(NC(=O)CCl)c1ccc2c(c1)OCCCO2 (stereo not drawn) [4-N14, 2-chloro-N-[1-(3,4-dihydro-2H-1,5-benzodioxepin-7-yl)-2-methylpropyl]acetamide] | 28.5%
CC(Cl)C(=O)Nc1cc(C(F)(F)F)ccc1Cl (stereo not drawn) [4-N15, 2-chloro-N-[2-chloro-5-(trifluoromethyl)phenyl]propanamide] | 83.3%
O=C(CCl)Nc1ccc(S(=O)(=O)C(F)F)cc1 [4-N16, 2-chloro-N-(4-difluoromethanesulfonylphenyl)acetamide] | 0.598%
Cc1ccc(C(=O)c2ccccc2NC(=O)CCl)cc1 [4-N17, 2-chloro-N-[2-(4-methylbenzoyl)phenyl]acetamide] | 2.4%
Cc1c(C#N)c(NC(=O)CCl)n(C2CCCCC2)c1C [4-N18, 2-chloro-N-(3-cyano-1-cyclohexyl-4,5-dimethyl-1H-pyrrol-2-yl)acetamide] | 0.0875%
COc1ccc(C2=NN(C(=O)CCl)C(c3ccco3)C2)cc1 (stereo not drawn) [4-N19, 2-chloro-1-[5-(furan-2-yl)-3-(4-methoxyphenyl)-4,5-dihydro-1H-pyrazol-1-yl]ethan-1-one] | 0.0172%
CC(Cl)C(=O)N1CC(=O)Nc2cc(C(F)(F)F)ccc21 (stereo not drawn) [4-N20, 4-(2-chloropropanoyl)-7-(trifluoromethyl)-1,2,3,4-tetrahydroquinoxalin-2-one] | 82.1%
O=C(CCl)NC1CCCN(c2cc(N3CCOCC3)ncn2)C1 (stereo not drawn) [4-N21, 2-chloro-N-{1-[6-(morpholin-4-yl)pyrimidin-4-yl]piperidin-3-yl}acetamide] | 4.92%
O=C(CCl)Nc1ccccc1Cc1ccccc1 [4-N22, N-(2-benzylphenyl)-2-chloroacetamide] | 0.906%
Cc1ccc(F)cc1NC(=O)CCl [4-O03, 2-chloro-N-(5-fluoro-2-methylphenyl)acetamide] | 0.509%
COc1ccc(S(=O)(=O)N2CCOCC2)cc1NC(=O)CCl [4-O04, 2-chloro-N-[2-methoxy-5-(morpholine-4-sulfonyl)phenyl]acetamide] | 1.63%
O=C(CCl)Nc1cc2c(cc1[N+](=O)[O-])OCCCO2 [4-O05, 2-chloro-N-(8-nitro-3,4-dihydro-2H-1,5-benzodioxepin-7-yl)acetamide] | 103%
CC(Cl)C(=O)NC1CCCCC1 (stereo not drawn) [4-O06, 2-chloro-N-cyclohexylpropanamide] | 115%

SMILES | viability at 48 h, 25 µM
COc1cc([N+](=O)[O-])ccc1NC(=O)CCl [4-O07, 2-chloro-N-(2-methoxy-4-nitrophenyl)acetamide] | 1.19%
CC(Cl)C(=O)Nc1ccc(F)c(F)c1F (stereo not drawn) [4-O08, 2-chloro-N-(2,3,4-trifluorophenyl)propanamide] | 88.8%
N#Cc1cc([N+](=O)[O-])ccc1NC(=O)CCl [4-O09, 2-chloro-N-(2-cyano-4-nitrophenyl)acetamide] | 1.1%
CCC(C)c1ccccc1NC(=O)C(C)Cl (stereo not drawn) [4-O10, N-[2-(butan-2-yl)phenyl]-2-chloropropanamide] | 85.1%
Cc1nn(Cc2ccccc2)c(C)c1CNC(=O)CCl [4-O11, N-[(1-benzyl-3,5-dimethyl-1H-pyrazol-4-yl)methyl]-2-chloroacetamide] | 1.47%
O=C(CCl)NCCc1ccc(Cl)cc1 [4-O12, 2-chloro-N-[2-(4-chlorophenyl)ethyl]acetamide] | 7.11%
O=C(CCl)Nc1ccccc1Sc1ccc(Cl)cc1 [4-O13, 2-chloro-N-{2-[(4-chlorophenyl)sulfanyl]phenyl}acetamide] | 0.318%
CC(C)c1ccc(C(NC(=O)CCl)C(C)C)cc1 (stereo not drawn) [4-O14, 2-chloro-N-{2-methyl-1-[4-(propan-2-yl)phenyl]propyl}acetamide] | 0.576%
CCOC(=O)c1c(NC(=O)CCl)sc(C)c1C [4-O15, ethyl 2-(2-chloroacetamido)-4,5-dimethylthiophene-3-carboxylate] | 57%
O=C(CCl)Nc1c(Cl)c(Cl)cc(Cl)c1Cl [4-O16, 2-chloro-N-(2,3,5,6-tetrachlorophenyl)acetamide] | 1.16%
COc1ccccc1NC(=O)c1ccc(NC(=O)CCl)cc1 [4-O17, 4-(2-chloroacetamido)-N-(2-methoxyphenyl)benzamide] | -0.113%
O=C(CCl)N1N=C(c2cccs2)CC1c1cccs1 (stereo not drawn) [4-O18, 1-[3,5-bis(thiophen-2-yl)-4,5-dihydro-1H-pyrazol-1-yl]-2-chloroethan-1-one] | 0.013%
O=C(CCl)NCC1(c2ccccc2)CCC1 [4-O19, 2-chloro-N-[(1-phenylcyclobutyl)methyl]acetamide] | 0.976%
O=C(CCl)N1N=C(c2cccs2)CC1c1ccc(F)cc1 (stereo not drawn) [4-O20, 2-chloro-1-[5-(4-fluorophenyl)-3-(thiophen-2-yl)-4,5-dihydro-1H-pyrazol-1-yl]ethan-1-one] | 0.502%
Cc1c(C#N)c(NC(=O)CCl)n(Cc2ccc(F)cc2)c1C [4-O21, 2-chloro-N-{3-cyano-1-[(4-fluorophenyl)methyl]-4,5-dimethyl-1H-pyrrol-2-yl}acetamide] | 0.102%
Cc1ccc(C2=NN(C(=O)CCl)C(c3cccs3)C2)cc1 (stereo not drawn) [4-O22, 2-chloro-1-[3-(4-methylphenyl)-5-(thiophen-2-yl)-4,5-dihydro-1H-pyrazol-1-yl]ethan-1-one] | -0.0957%
CCc1ccc(NC(=O)CCl)cc1 [4-P03, 2-chloro-N-(4-ethylphenyl)acetamide] | 0.338%
NC(=O)c1ccc(NC(=O)CCl)cc1 [4-P04, 4-(2-chloroacetamido)benzamide] | 0.712%
CCc1ccccc1NC(=O)CN(C)C(=O)C(C)Cl (stereo not drawn) [4-P05, 2-chloro-N-{[(2-ethylphenyl)carbamoyl]methyl}-N-methylpropanamide] | 81%
